PubChem BioAssay (NCI)
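How tested: cells in 96-well plates exposed to compound for 48 hours at five concentrations. GI50 marks 50% less growth. TGI: total growth inhibition.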 Where a SMILES comes first, the peptide text is derived from it. [ ]: non-standard residue; d: D form. Phe(F5) = N[CH](Cc1c(F)c(F)c(F)c(F)c1F)C(=O)O

Columns and labels:
Experiment in all cases: NCI anticancer screen, dose series, 48 h
BT-549 breast = test system: BT-549 breast
ACHN renal = test system: ACHN renal
SW-620 colon = test system: SW-620 colon
SK-MEL-2 melanoma = test system: SK-MEL-2 melanoma
PC-3 prostate = test system: PC-3 prostate
NCI-H23 lung = test system: NCI-H23 lung
HCC-2998 colon = test system: HCC-2998 colon
SF-539 CNS = test system: SF-539 CNS
SK-OV-3 ovarian = test system: SK-OV-3 ovarian
SR leukemia = test system: SR leukemia

Structure (SMILES)	GI50 (BT-549 breast) [µM]	TGI (BT-549 breast) [µM]	GI50 (ACHN renal) [µM]	TGI (ACHN renal) [µM]	GI50 (SW-620 colon) [µM]	TGI (SW-620 colon) [µM]	GI50 (SK-MEL-2 melanoma) [µM]	TGI (SK-MEL-2 melanoma) [µM]	GI50 (PC-3 prostate) [µM]	TGI (PC-3 prostate) [µM]	GI50 (NCI-H23 lung) [µM]	TGI (NCI-H23 lung) [µM]	GI50 (HCC-2998 colon) [µM]	TGI (HCC-2998 colon) [µM]	GI50 (SF-539 CNS) [µM]	TGI (SF-539 CNS) [µM]	GI50 (SK-OV-3 ovarian) [µM]	TGI (SK-OV-3 ovarian) [µM]	GI50 (SR leukemia) [µM]	TGI (SR leukemia) [µM]
CC1(C)CCC2(C(=O)OC3OC(CO)C(O)C(O)C3O)CC[C@]3(C)C(=CCC4C5(C)CC[C@H](OC6OC(C(=O)O)C(O)C(O)C6O)C(C)(C)C5CCC43C)C2C1 (stereo not given in full)	1.7	25.8	6.3	12.6	1.93	8.87	1.85	10.7	1.26	3.47	1.48	3.73	0.89	1.64	–	–	–	–	–	–
COc1cc2nc(Cl)nc(Nc3cccc(C(=O)/C=C/c4ccccc4)c3)c2cc1OC	2.36	7.83	3.51	> 100	2.79	> 100	> 21	> 75.9	3.86	27.8	6.63	> 100	2.54	5.56	3.82	19.2	7.96	51.7	–	–
CC(=O)[O][Pb]([O]C(C)=O)([c]1ccccc1)[c]1ccccc1	–	–	> 100	> 100	5.42	> 100	1.73	3.75	–	–	2.35	13.4	44.9	> 100	13.3	> 100	28.1	> 100	6.22	> 100
CCC[CH2][Sn]([CH2]CCC)([O]C(C)=O)[O]C(C)=O	–	–	1.44	2.75	0.694	2.65	0.542	1.95	–	–	1.21	2.91	1.53	2.92	1.53	3.19	1.93	3.95	0.571	4.72
CC(=O)/C(=C\c1ccco1)C(=O)Nc1ccccc1	–	–	–	> 100	–	> 100	–	> 100	–	–	–	> 100	–	> 100	–	> 100	–	> 100	–	> 100
CC12CCC(=O)C(O1)C1C(=O)c3cc4ccccc4cc3C(=O)C12 (stereo not given)	23.7	58.6	15.8	31.1	–	–	46.4	> 100	16.8	43.4	15.8	31.6	–	–	21.8	59.3	46.6	> 100	–	–
COC(=O)[C@@H]1CSC(=S)N1C(=O)C[C@H]1CC=CC[C@H]1CC(=O)Sc1ccccc1	–	–	–	32.1	–	33.9	–	52	–	–	–	46.5	–	33.4	–	32.1	–	50	–	27.9
COC(=O)C(CC(C)C)NC(=O)C(Cc1cnc[nH]1)NC(=O)CNC(=O)C(NC(=O)C(C)NC(=O)C(Cc1c[nH]c2ccccc12)NC(=O)C(CCC(=O)O)NC(=O)C(N)Cc1c(F)c(F)c(F)c(F)c1F)C(C)C (stereo not given) (H-[Phe(F5)]EWAVGHL-OMe; configuration not given here)	–	–	> 100	> 100	> 100	> 100	> 100	> 100	–	> 12.5	> 100	> 100	> 100	> 100	> 100	> 100	–	> 12.5	> 100	> 100
